Assay results from patent US6921821B2, “Antagonists of melanin concentrating hormone receptor” (Abbott Laboratories, priority 2002, dated 2005).
Counter-ions that a name gives are not always drawn.

These molecules were tested against T1, murine MCHR (Mus musculus, UniProt Q8JZL2) (assay: Assay for release of intracellular calcium (FLIPR, Fluo-4), inhibition of MCH-induced Ca++ flux). Details: test compound at a dose of 10 μM, HEK293 cells expressing the murine MCHR, read-out: inhibition of MCH (MCH induced Ca++ flux / fluorescence).
T1 construct: expressed in transfected cells; host or cells: HEK293
T1 sequence (Q8JZL2 whole entry): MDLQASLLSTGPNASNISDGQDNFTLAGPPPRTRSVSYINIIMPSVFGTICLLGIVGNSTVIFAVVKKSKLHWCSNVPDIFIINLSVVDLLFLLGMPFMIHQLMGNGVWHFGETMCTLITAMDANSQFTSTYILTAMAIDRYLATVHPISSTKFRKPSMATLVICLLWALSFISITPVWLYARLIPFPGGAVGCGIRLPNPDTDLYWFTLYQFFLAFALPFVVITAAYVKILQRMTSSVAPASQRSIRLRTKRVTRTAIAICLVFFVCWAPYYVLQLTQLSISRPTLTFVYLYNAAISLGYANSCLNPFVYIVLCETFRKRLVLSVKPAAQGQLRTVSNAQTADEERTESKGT
Assay type: cell-based
Procedure: Assay for Release of Intracellular Calcium
Activation of the melanin concentrating hormone receptor (MCHR) by MCH induces the release of Ca^++ from intracellular stores. This intracellular calcium release is measured using a fluorometric imaging plate reader (FLIPR™, Molecular Devices Corp.) in conjunction with the Ca^++-sensitive dye Fluo-4. Release of Ca^++ from intracellular stores causes an increase in fluorescence of the dye that is proportional to Ca^++ concentration. Briefly, the assays are performed as follows. HEK293 cells expressing the murine MCHR are plated overnight at 50,000 cells/well in 96-well plates. The following day, culture medium is removed and replaced with 100 μl/well of D-PBS (+glucose and sodium pyruvate) containing 2.5 μM Fluo-4AM (Molecular Probes), 0.01% Pluronic F-127 and 2.5 mM probenecid. Cells are loaded with the Fluo-4 dye for at least one hour at room temp. After loading, the cells are washed gently to remove extracellular dye and 100 μl of D-PBS (+glucose and sodium pyruvate) is added to each well. Test compounds are prepared at 40 μM in 4% DMSO. The cell plate is placed in the FLIPR™ and 50 μl/well of test compound is delivered. The calcium signal is followed for 3 minutes to assay for potential agonist activity by the test compounds. Then 50 μl/well of 12 nM mouse MCH (in D-PBS containing 0.1% BSA) is added and the ligand-induced calcium signal is followed for an additional 3 minutes. Antagonist activity as determined by the test compounds ability to inhibit MCH induced Ca^++ flux is calculated as % inhibition as described by the following formula: % inhibition=[1−((fTC−fB)÷(fMCH−fB))]×100, where fTC=MCH-induced fluorescence in the presence of test compound; fMCH=MCH-induced fluorescence in the absence of test compound; and fB=Baseline fluorescence.
MCH (3 nM) usually elicits a response of 30,000-40,000 relative fluorescence units (RFU) with a baseline of about 1000 RFU. Fluo-4 fluorescence is measured at 488 nm, with an exposure of 0.40 sec. and F-stop=2.0 and the laser set at 0.40-0.60 W constant light output.

SMILES | inhibition at 10 µM [%]
COc1ccc2oc(=O)cc(NC3CCN(Cc4cccc(F)c4)CC3)c2c1 [II-79, 4-[1-(3-Fluoro-benzyl)-piperidin-4-ylamino]-6-methoxy-chromen-2-one trifluoroacetate] | ≥ 50
CN(C)C(=O)c1c(NC2CCN(Cc3ccc4ccccc4c3)CC2)c2cc(Cl)ccc2n(C)c1=O [Compound V-24, 6-Chloro-1-methyl-4-(1-naphthalen-2-ylmethyl-piperidin-4-ylamino)-2-oxo-1,2-dihydro-quinoline-3-carboxylic acid dimethylamide] | ≥ 50
COc1ccc2oc(=O)cc(NC3CCN(Cc4ccc(OC)c(F)c4)CC3)c2c1 [II-70, 4-[1-(3-Fluoro-4-methoxy-benzyl)-piperidin-4-ylamino]-6-methoxy-chromen-2-one trifluoroacetate] | ≥ 50
CCc1ccc2c(c1)c(NC1CCN(Cc3ccc4occc4c3)CC1)cc(=O)n2C [Compound V-25, 4-(1-Benzofuran-5-ylmethyl-piperidin-4-ylamino)-6-ethyl-1-methyl-1H-quinolin-2-one] | ≥ 50
N#Cc1ccc2oc(=O)cc(NC3CCN(Cc4ccc5occc5c4)CC3)c2c1 [II-114, 4-(1-Benzofuran-5-ylmethyl-piperidin-4-ylamino)-2-oxo-2H-chromene-6-carbonitrile] | ≥ 50
COc1ccc2oc(=O)cc(NC3CCN(Cc4ccc(OC)c(C)c4)CC3)c2c1 [II-37, 6-Methoxy-4-[1-(4-methoxy-3-methyl-benzyl)-piperidin-4-ylamino]-chromen-2-one trifluoroacetate] | ≥ 50
COc1ccc2c(c1)c(NC1CCN(Cc3ccc4c(c3)OCO4)CC1)c(C(=O)N(C)C)c(=O)n2C [Compound V-60, 4-(1-Benzo[1,3]dioxol-5-ylmethyl-piperidin-4-ylamino)-6-methoxy-1-methyl-2-oxo-1,2-dihydro-quinoline-3-carboxylic acid dimethylamide] | ≥ 50
O=c1cc(NC2CCN(Cc3ccc4ccccc4c3)CC2)c2cc(F)cc(F)c2o1 [II-85, 6,8-Difluoro-4-(1-naphthalen-2-ylmethyl-piperidin-4-ylamino)-chromen-2-one] | ≥ 50
CCc1ccc2c(c1)c(NC1CCN(Cc3ccc4c(c3)OCO4)CC1)cc(=O)n2CC [Compound V-17, 4-(1-Benzo[1,3]dioxol-5-ylmethyl-piperidin-4-ylamino)-1,6-diethyl-1H-quinolin-2-one] | ≥ 50
COc1ccc2oc(=O)cc(NC3CCN(Cc4ccc(OCCCN5CCCCC5)c(Cl)c4)CC3)c2c1 [II-115, 4-{1-[3-Chloro-4-(3-piperidin-1-yl-propoxy)-benzyl]-piperidin-4-ylamino}-6-methoxy-chromen-2-one; Double TFA Salt] | ≥ 50
C=Cc1ccc2oc(=O)cc(NC3CCN(Cc4ccc5c(c4)CCO5)CC3)c2c1 [II-87, 4-[1-(2,3-Dihydro-benzofuran-5-ylmethyl)-piperidin-4-ylamino]-6-vinyl-chromen-2-one] | ≥ 50
O=c1cc(NC2CCN(Cc3cc4ccccc4o3)CC2)c2cc(Cl)ccc2o1 [II-18, 4-(1-Benzofuran-2-ylmethyl-piperidin-4-ylamino)-6-chloro-chromen-2-one] | ≥ 50
COc1ccc2oc(=O)cc(NC3CCN(Cc4ccc(C(=O)NCCN5CCCC5)cc4)CC3)c2c1 [II-86, 4-[4-(6-Methoxy-2-oxo-2H-chromen-4-ylamino)-piperidin-1-ylmethyl]-N-(2-pyrrolidin-1-yl-ethyl)-benzamide; Double TFA Salt] | ≥ 50
Cn1c(=O)cc(NC2CCN(Cc3ccc4occc4c3)CC2)c2cc(C(F)(F)F)ccc21 [Compound V-33, 4-(1-Benzofuran-5-ylmethyl-piperidin-4-ylamino)-1-methyl-6-trifluoromethyl-1H-quinolin-2-one] | ≥ 50
COc1ccc2oc(=O)cc(NC3CCN(Cc4ccc5c(c4)OCCO5)CC3)c2c1 [II-64, 4-[1-(2,3-Dihydro-benzo[1,4]dioxin-6-ylmethyl)-piperidin-4-ylamino]-6-methoxy-chromen-2-one trifluoroacetate] | ≥ 50
O=c1cc(NC2CCN(Cc3ccc4c(c3)OCO4)CC2)c2cc(Cl)ccc2n1Cc1ccccc1 [Compound V-3, 4-(1-Benzo[1,3]dioxol-5-ylmethyl-piperidin-4-ylamino)-1-benzyl-6-chloro-1H-quinolin-2-one] | ≥ 50
COc1ccc2oc(=O)cc(NC3CCN(Cc4ccc(Cl)c(F)c4)CC3)c2c1 [II-58, 4-[1-(4-Chloro-3-fluoro-benzyl)-piperidin-4-ylamino]-6-methoxy-chromen-2-one trifluoroacetate] | ≥ 50
N#Cc1c(NC2CCN(Cc3ccc4ccccc4c3)CC2)c2cc(Cl)ccc2[nH]c1=O [Compound V-53, 6-Chloro-4-(1-naphthalen-2-ylmethyl-piperidin-4-ylamino)-2-oxo-1,2-dihydro-quinoline-3-carbonitrile] | ≥ 50
Cc1ccc2oc(=O)c(F)c(NC3CCN(Cc4ccc5c(c4)OCO5)CC3)c2c1 [II-89, 4-(1-Benzo{1,3}dioxol-5-ylmethyl-piperidin-4-ylamino)-3-fluoro-6-methylchromene-2-one] | ≥ 50
COc1ccc2oc(=O)cc(NC3CCN(Cc4ccc(O)c(F)c4)CC3)c2c1 [II-88, 4-[1-(3-Fluoro-4-hydroxy-benzyl)-piperidin-4-ylamino]-6-methoxy-chromen-2-one hydrochloride] | ≥ 50
COc1ccccc1/C=C/CN1CCC(Nc2cc(=O)oc3ccc(C)cc23)CC1 [III-19, 4-{1-[3-(2-Methoxy-phenyl)-allyl]-piperidin-4-ylamino}-6-methyl-chromen-2-one] | ≥ 50
COc1ccc2oc(=O)cc(NC3CCN(Cc4cc5ccccc5n4C)CC3)c2c1 [II-84, 6-Methoxy-4-[1-(1-methyl-1H-indol-2-ylmethyl)-piperidin-4-ylamino]-chromen-2-one, trifluoroacetate] | ≥ 50
Cn1c(=O)c(C#N)c(NC2CCN(Cc3ccc4c(c3)OCO4)CC2)c2cc(Cl)ccc21 [Compound V-51, 4-(1-Benzo[1,3]dioxol-5-ylmethyl-piperidin-4-ylamino)-6-chloro-1-methyl-2-oxo-1,2-dihydro-quinoline-3-carbonitrile] | ≥ 50
COc1ccc2c(c1)c(NC1CCN(Cc3ccc4occc4c3)CC1)cc(=O)n2C [Compound V-12, 4-(1-Benzofuran-5-ylmethyl-piperidin-4-ylamino)-6-methoxy-1-methyl-1H-quinolin-2-one] | ≥ 50
O=C(NCCN1CCCC1)c1ccc(CN2CCC(Nc3cc(=O)oc4ccc(Cl)cc34)CC2)cc1 [II-55, 4-[4-(6-Chloro-2-oxo-2H-chromen-4-ylamino)-piperidin-1-ylmethyl]-N-(2-pyrrolidin-1-yl-ethyl)-benzamide; Double TFA Salt] | ≥ 50
O=c1cc(NC2CCN(Cc3ccc4occc4c3)CC2)c2cc(Cl)ccc2n1Cc1ccncc1 [Compound V-10, 4-(1-Benzofuran-5-ylmethyl-piperidin-4-ylamino)-6-chloro-1-pyridin-4-ylmethyl-1H-quinolin-2-one] | ≥ 50
CCc1ccc2oc(=O)cc(NC3CCN(Cc4ccc(C)c(C)c4)CC3)c2c1 [II-103, 4-{1-(3,4-Dimethyl-benzyl)-piperidin-4-ylamino}-6-ethyl-chromen-2-one] | ≥ 50
